Values quoted from earlier work, collected in article PMC8236845.
Where two headings read alike, the source gives them in different places. Numbered stars: 1 amine (or outer) side, 2 acyl side, 3 side chain; on linkers, the order of the positions; unused ones are H or OH. Bridge positions count the residues as written; N and C are the ends. Square brackets hold non-standard residues; d marks the D form. Peptide text beside a SMILES is read from it. * marks the point of attachment. pTerphenylCO(4''-OnC5H11) = CCCCCOc1ccc(-c2ccc(-c3ccc(C(=O)*)cc3)cc2)cc1; Orn(4R-OH,5R-OH) = O=C([C@H](C[C@@H](O)[C@@H](O)N[*:3])N[*:1])[*:2]; hTyr(3S-OH,4S-OH) = N[C@H](C(=O)O)[C@H](O)[C@@H](O)c1ccc(O)cc1; Pro(3S-OH,4S-Me) = C[C@H]1CN[C@H](C(=O)O)[C@H]1O; Hyp = O=C(O)[C@@H]1C[C@@H](O)CN1

What was measured:
[1] = human, in vivo, cited from earlier work
SARS-CoV-2 = details: 2021, cited from earlier work
[2] = test system: Middle Eastern Respiratory Syndroms (MERS) coronaviruses; details: cited from earlier work
SARS-CoV-1 = details: cited from earlier work
[3] = cited from earlier work
[4] = test system: SARS-CoV-2-related Pangolin corona virus; details: cited from earlier work
[5] = used in the context of chemotherapy, cited from earlier work
[6] = DOGS topical 24 mg/kg, ref Sarasola et al. (2002)

CCCCCOc1ccc(-c2ccc(-c3ccc(C(=O)N[C@H]4C[C@@H](O)[C@@H](O)NC(=O)[C@@H]5[C@@H](O)[C@@H](C)CN5C(=O)[C@H]([C@@H](C)O)NC(=O)[C@H]([C@H](O)[C@@H](O)c5ccc(O)cc5)NC(=O)[C@@H]5C[C@@H](O)CN5C(=O)[C@H]([C@@H](C)O)NC4=O)cc3)cc2)cc1 [Anidulafungin] ({pTerphenylCO(4''-OnC5H11)}-[Orn(4R-OH,5R-OH)]T[Hyp][hTyr(3S-OH,4S-OH)]T[Pro(3S-OH,4S-Me)]; lactam 1-C)
C max (ng/ml) ([1]; iv): 2,500 ng/ml | Cmax ([1]; iv): 2200 nM

C[C@]12CC[C@@H]3c4ccc(OC(=O)c5ccccc5)cc4CC[C@H]3[C@@H]1CC[C@@H]2O [Estradiol benzoate]
inhibition of SARS-COV-2 replication in culture (SARS-CoV-2; ref Yang et al.): reported to inhibit | C max ([1]; im, 5 mg): 0.75 ng/mL | Cmax ([1]; im, 5 mg): 2 nM

Cc1ccc(NC(=O)c2ccc(CN3CCN(C)CC3)cc2)cc1Nc1nccc(-c2cccnc2)n1 [Imatinib]
inhibition of SARS-CoV-2 in cell-culture-based studies (SARS-CoV-2; ref Cagno et al.): failed to inhibit | inhibition of MERS coronavirus [2]: reported to inhibit | inhibition of SARS-CoV-1 (SARS-CoV-1): reported to inhibit

CO[C@H]1C[C@H](O[C@@H]2/C(C)=C/C[C@@H]3C[C@@H](C[C@]4(CC[C@H](C)[C@@H](C5CCCCC5)O4)O3)OC(=O)[C@@H]3C=C(C)/C(=N/O)[C@H]4OC/C(=C\C=C\[C@@H]2C)[C@]43O)O[C@@H](C)[C@@H]1O [Selamectin]
Cmax ([3]; DOGS oral 24 mg/kg, ref Sarasola et al. (2002)): 9900 nM | C max [3, 6]: 86.5 ng/mL | Cmax [3, 6]: 110 nM | tolerability ([3]; oral, dogs, ref Sarasola et al., 2002): well tolerated | inhibition of cytopathic effect [4]: inhibited the cytopathic effect

Cc1nc(Nc2ncc(C(=O)Nc3c(C)cccc3Cl)s2)cc(N2CCN(CCO)CC2)n1 [Dasatinib]
inhibition of SARS-CoV-2 in cell-culture-based studies (SARS-CoV-2; ref Cagno et al.): failed to inhibit | inhibition of MERS coronavirus [2]: reported to inhibit | inhibition of SARS-CoV-1 (SARS-CoV-1): reported to inhibit

Cc1cn(-c2cc(NC(=O)c3ccc(C)c(Nc4nccc(-c5cccnc5)n4)c3)cc(C(F)(F)F)c2)cn1 [Nilotinib AMN-107, Nilotinib]
IC50 (SARS-CoV-2; ref Cagno et al., read-out: IC50 of inhibition of SARS-CoV-2 infection in vitro): 1500 to 3000 nM | C max (ng/ml) ([1]; po, 300 mg): 1,360 ng/ml | Cmax ([1]; po, 300 mg): 2570 nM

COc1cc([C@@H]2c3cc4c(cc3[C@H](O)[C@H]3COC(=O)[C@@H]23)OCO4)cc(OC)c1OC [Picropodophyllin]
side effects ([5]; ref Ekman et al., 2016): moderate to severe side effects | C max (ng/ml) ([1]; po, 520 mg): 207–1,035 ng/ml | Cmax ([1]; po, 520 mg): 500 to 2500 nM

CC[C@H](C)[C@@H]1NC(=O)[C@H](Cc2ccc(O)cc2)NC(=O)[C@@H](N)CSSC[C@@H](C(=O)N2CCC[C@H]2C(=O)N[C@@H](CC(C)C)C(=O)NCC(N)=O)NC(=O)[C@H](CC(N)=O)NC(=O)[C@H](CCC(N)=O)NC1=O [Oxytocin]
C max ([1]; inhaled or intranasal, 44 ug): 0.005 ng/mL | Cmax ([1]; inhaled or intranasal, 44 ug): 5 nM | C max ([1]; iv): 0.005 ng/mL | Cmax ([1]; iv): 5 nM

CC(=O)O[C@@]12CO[C@@H]1C[C@H](O)[C@@]1(C)C(=O)[C@H](O)C3=C(C)[C@@H](OC(=O)[C@H](O)[C@@H](NC(=O)OC(C)(C)C)c4ccccc4)C[C@@](O)([C@@H](OC(=O)c4ccccc4)[C@H]21)C3(C)C [Docetaxel]
side effects ([5]; ref Gustafson et al., 2003): moderate to severe side effects | C max ([1]; iv): 933 ng/mL | Cmax ([1]; iv): 1230 nM
